Key:
[1] = target: Serine/threonine-protein kinase/endoribonuclease IRE1 (Homo sapiens, UniProt O75460); test: Not found
Text: Not found

[2] = target: Serine/threonine-protein kinase/endoribonuclease IRE2 (Human, UniProt Q76MJ5); test: Not found
Text: Not found

Chain of Serine/threonine-protein kinase/endoribonuclease IRE1 (O75460 whole entry): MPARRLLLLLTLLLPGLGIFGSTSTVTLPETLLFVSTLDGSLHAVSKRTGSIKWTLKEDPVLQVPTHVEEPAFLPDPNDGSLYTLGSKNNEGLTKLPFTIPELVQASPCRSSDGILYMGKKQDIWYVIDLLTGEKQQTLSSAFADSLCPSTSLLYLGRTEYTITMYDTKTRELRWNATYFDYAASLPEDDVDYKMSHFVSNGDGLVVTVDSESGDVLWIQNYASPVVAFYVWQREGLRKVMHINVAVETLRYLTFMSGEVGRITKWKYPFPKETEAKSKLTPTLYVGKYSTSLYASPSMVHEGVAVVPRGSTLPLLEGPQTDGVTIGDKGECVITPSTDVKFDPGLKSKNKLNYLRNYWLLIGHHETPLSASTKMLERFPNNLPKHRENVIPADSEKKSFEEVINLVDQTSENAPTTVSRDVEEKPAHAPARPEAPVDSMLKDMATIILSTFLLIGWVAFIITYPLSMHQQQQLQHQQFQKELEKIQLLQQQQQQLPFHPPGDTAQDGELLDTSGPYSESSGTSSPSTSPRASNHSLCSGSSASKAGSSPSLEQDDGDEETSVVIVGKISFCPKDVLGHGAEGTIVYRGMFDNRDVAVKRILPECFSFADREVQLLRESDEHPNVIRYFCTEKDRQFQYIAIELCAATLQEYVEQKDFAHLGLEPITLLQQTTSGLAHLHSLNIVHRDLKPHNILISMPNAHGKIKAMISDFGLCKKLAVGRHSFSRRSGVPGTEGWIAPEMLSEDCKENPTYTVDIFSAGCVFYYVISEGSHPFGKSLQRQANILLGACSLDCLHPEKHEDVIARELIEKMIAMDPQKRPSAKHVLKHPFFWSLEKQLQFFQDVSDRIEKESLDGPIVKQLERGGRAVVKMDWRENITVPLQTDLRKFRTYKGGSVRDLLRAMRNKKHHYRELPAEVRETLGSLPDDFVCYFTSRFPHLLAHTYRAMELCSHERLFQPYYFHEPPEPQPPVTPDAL
Chain of Serine/threonine-protein kinase/endoribonuclease IRE2 (Q76MJ5 whole entry): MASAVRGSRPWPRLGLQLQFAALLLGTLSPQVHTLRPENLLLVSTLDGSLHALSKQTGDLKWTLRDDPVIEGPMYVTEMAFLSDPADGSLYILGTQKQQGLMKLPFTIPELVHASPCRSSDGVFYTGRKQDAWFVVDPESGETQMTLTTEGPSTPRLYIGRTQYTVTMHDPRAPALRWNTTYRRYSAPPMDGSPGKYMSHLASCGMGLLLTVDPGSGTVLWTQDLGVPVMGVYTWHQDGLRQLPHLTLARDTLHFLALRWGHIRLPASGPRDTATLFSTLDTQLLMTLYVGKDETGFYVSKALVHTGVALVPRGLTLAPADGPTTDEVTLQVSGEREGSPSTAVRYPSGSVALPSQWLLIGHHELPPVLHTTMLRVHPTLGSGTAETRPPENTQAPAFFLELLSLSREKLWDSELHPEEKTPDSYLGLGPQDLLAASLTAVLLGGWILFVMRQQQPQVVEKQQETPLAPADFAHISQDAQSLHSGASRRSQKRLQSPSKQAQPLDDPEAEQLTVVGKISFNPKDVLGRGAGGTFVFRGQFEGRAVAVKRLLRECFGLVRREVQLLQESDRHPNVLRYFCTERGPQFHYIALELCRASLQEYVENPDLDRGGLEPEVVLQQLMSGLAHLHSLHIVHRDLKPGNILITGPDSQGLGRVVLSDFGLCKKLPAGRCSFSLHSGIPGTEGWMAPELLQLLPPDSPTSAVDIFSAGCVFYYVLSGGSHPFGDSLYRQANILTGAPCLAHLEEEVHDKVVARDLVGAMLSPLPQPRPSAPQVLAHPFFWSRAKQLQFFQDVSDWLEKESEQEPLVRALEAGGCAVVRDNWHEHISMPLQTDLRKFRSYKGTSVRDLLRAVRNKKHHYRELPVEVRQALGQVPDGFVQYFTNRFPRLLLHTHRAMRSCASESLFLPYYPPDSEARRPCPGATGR

Row | IC50 [1] | IC50 [2] | SMILES
1 | 52 nM | > 10000 nM | Cc1ccc(C(=O)NCc2ccccc2Cl)cc1Oc1ncsc1-c1ccnc(N[C@H]2CCCNC2)n1 [US12391669, Compound 20]
2 | 443 nM |  | c1cc(Cc2nc3ccccc3[nH]2)cc(Oc2ncsc2-c2ccnc(N[C@H]3CCCNC3)n2)c1 [US12391669, Compound 35]

From BindingDB's records for patent US12391669 (University Of California, 2025)
